In PubChem BioAssay (NCI):
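How tested: cells in 96-well plates exposed to compound for 48 hours at five concentrations. At the TGI there is no net growth.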

How the values were obtained:
Assay in all cases: NCI anticancer screen, dose series, 48 h
NCI/ADR-RES ovarian = tested on: NCI/ADR-RES ovarian
COLO 205 colon = tested on: COLO 205 colon
HL-60(TB) leukemia = tested on: HL-60(TB) leukemia
UACC-257 melanoma = tested on: UACC-257 melanoma
HOP-92 NSCLC = tested on: HOP-92 NSCLC
HOP-62 NSCLC = tested on: HOP-62 NSCLC
UO-31 renal = tested on: UO-31 renal
HCC-2998 colon = tested on: HCC-2998 colon
OVCAR-5 ovarian = tested on: OVCAR-5 ovarian
KM12 colon = tested on: KM12 colon
SN12C renal = tested on: SN12C renal
SK-MEL-2 melanoma = tested on: SK-MEL-2 melanoma
SF-268 CNS = tested on: SF-268 CNS
MDA-MB-435 = tested on: MDA-MB-435
M14 melanoma = tested on: M14 melanoma
EKVX NSCLC = tested on: EKVX NSCLC
MDA-MB-231 breast = tested on: MDA-MB-231 breast
TK-10 renal = tested on: TK-10 renal
K-562 leukemia = tested on: K-562 leukemia
SW-620 colon = tested on: SW-620 colon
HCT-15 colon = tested on: HCT-15 colon
CAKI-1 renal = tested on: CAKI-1 renal
MDA-N = tested on: MDA-N
PC-3 prostate = tested on: PC-3 prostate
HT29 colon = tested on: HT29 colon
SF-295 CNS = tested on: SF-295 CNS
MALME-3M melanoma = tested on: MALME-3M melanoma
NCI-H23 lung = tested on: NCI-H23 lung
SNB-19 CNS = tested on: SNB-19 CNS
T-47D breast = tested on: T-47D breast
NCI-H522 lung = tested on: NCI-H522 lung
ACHN renal = tested on: ACHN renal
RXF 393 renal = tested on: RXF 393 renal
DU-145 prostate = tested on: DU-145 prostate
U251 CNS = tested on: U251 CNS
786-0 renal = tested on: 786-0 renal
SF-539 CNS = tested on: SF-539 CNS
UACC-62 melanoma = tested on: UACC-62 melanoma
A498 renal = tested on: A498 renal
MCF7 breast = tested on: MCF7 breast
NCI-H226 lung = tested on: NCI-H226 lung
MOLT-4 leukemia = tested on: MOLT-4 leukemia
SK-MEL-28 melanoma = tested on: SK-MEL-28 melanoma
CCRF-CEM leukemia = tested on: CCRF-CEM leukemia
RPMI-8226 leukemia = tested on: RPMI-8226 leukemia
IGROV1 ovarian = tested on: IGROV1 ovarian
NCI-H460 lung = tested on: NCI-H460 lung
OVCAR-8 ovarian = tested on: OVCAR-8 ovarian
SK-OV-3 ovarian = tested on: SK-OV-3 ovarian
A549 NSCLC = tested on: A549 NSCLC
SR leukemia = tested on: SR leukemia
OVCAR-4 ovarian = tested on: OVCAR-4 ovarian
SK-MEL-5 melanoma = tested on: SK-MEL-5 melanoma
HS 578T breast = tested on: HS 578T breast
HCT-116 colon = tested on: HCT-116 colon
SNB-75 CNS = tested on: SNB-75 CNS

Measured: TGI

C=Cc1c(C)c(OC)cc2c1Oc1ccc(OC)c(C)c1CC2
> 100 µM: all assays above
